The values that follow come from patent US9340590B2 (priority 2011, dated 2016).

The target in one experiment is hNav1.3 (Homo sapiens, UniProt Q9NY46). Kind of experiment: cell-based. As to conditions: IonWorks Quattro, read-out: IWQ Use Nav1.3. In general terms: The patch-clamp technique gives a direct electrical read-out from membranes.
Another experiment concerns the target hNav1.5 (Homo sapiens, UniProt Q14524). Kind of experiment: cell-based.
Where [1] appears, read: clamped to −110 mV, depolarized to −10 mV, 5 min after compound, n=2.
Where [2] appears, read: IonWorks Quattro, clamped to −110 mV, depolarized to −10 mV, 5 min after compound, n=2, read-out: IWQ Use Nav1.5.

Molecules are shown by their SMILES. Read-outs that look alike come from different tables or passages of the source. Positions of bridges follow the written chain, without caps; N, C: chain ends. Residues, ends and D or L forms follow the SMILES beside them.

Chain of hNav1.5 (Q14524 whole entry, looked up): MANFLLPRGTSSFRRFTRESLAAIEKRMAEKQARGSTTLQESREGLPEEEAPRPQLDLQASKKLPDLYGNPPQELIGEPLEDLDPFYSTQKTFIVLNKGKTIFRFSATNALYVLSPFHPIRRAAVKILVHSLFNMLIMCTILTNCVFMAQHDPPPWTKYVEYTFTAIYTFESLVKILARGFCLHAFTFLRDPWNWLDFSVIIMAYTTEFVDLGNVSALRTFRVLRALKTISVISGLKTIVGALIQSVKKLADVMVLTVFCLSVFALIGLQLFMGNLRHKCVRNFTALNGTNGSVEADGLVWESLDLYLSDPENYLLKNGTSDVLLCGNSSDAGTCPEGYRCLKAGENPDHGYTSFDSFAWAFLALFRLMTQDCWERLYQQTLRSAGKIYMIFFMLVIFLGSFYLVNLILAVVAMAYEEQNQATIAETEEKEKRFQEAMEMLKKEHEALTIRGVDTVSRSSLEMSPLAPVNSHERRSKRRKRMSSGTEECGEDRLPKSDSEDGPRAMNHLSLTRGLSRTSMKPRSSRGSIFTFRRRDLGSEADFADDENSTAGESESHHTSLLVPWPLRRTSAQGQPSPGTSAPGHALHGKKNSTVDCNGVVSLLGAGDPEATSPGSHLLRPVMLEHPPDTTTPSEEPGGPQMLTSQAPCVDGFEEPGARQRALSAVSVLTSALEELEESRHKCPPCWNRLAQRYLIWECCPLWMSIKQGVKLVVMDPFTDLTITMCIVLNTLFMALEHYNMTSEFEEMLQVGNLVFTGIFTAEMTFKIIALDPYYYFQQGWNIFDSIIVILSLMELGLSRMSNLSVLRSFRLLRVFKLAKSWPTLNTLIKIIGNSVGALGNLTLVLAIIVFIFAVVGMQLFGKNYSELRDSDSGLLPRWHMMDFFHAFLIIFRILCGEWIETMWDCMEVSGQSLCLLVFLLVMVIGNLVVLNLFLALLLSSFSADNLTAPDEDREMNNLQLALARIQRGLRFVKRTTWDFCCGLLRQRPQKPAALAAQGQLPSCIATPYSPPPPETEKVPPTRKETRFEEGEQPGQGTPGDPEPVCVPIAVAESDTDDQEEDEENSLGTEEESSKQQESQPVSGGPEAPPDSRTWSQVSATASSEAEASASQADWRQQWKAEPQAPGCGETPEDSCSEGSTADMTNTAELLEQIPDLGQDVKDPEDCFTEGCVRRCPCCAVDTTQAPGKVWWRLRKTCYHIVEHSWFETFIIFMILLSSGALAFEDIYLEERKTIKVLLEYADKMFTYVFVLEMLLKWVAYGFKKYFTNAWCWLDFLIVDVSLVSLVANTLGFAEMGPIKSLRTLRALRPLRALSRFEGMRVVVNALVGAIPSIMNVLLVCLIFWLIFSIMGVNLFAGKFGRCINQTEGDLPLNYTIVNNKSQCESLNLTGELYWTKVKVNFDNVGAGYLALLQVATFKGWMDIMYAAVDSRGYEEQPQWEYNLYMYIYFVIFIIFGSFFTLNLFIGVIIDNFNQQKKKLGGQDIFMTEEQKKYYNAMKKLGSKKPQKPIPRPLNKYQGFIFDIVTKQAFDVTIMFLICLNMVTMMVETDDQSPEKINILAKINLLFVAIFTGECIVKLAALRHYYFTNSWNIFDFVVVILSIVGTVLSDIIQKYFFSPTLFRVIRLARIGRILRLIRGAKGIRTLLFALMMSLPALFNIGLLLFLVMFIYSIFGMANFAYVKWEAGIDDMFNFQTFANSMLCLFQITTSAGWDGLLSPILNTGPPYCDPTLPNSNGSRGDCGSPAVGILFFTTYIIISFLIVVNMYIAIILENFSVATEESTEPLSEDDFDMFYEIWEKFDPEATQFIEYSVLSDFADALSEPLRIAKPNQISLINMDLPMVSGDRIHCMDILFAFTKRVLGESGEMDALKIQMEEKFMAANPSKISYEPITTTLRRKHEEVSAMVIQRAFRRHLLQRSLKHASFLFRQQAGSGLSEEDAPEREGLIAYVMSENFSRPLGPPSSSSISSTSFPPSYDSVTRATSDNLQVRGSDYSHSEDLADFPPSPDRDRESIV
Chain of hNav1.3 (Q9NY46 whole entry, looked up): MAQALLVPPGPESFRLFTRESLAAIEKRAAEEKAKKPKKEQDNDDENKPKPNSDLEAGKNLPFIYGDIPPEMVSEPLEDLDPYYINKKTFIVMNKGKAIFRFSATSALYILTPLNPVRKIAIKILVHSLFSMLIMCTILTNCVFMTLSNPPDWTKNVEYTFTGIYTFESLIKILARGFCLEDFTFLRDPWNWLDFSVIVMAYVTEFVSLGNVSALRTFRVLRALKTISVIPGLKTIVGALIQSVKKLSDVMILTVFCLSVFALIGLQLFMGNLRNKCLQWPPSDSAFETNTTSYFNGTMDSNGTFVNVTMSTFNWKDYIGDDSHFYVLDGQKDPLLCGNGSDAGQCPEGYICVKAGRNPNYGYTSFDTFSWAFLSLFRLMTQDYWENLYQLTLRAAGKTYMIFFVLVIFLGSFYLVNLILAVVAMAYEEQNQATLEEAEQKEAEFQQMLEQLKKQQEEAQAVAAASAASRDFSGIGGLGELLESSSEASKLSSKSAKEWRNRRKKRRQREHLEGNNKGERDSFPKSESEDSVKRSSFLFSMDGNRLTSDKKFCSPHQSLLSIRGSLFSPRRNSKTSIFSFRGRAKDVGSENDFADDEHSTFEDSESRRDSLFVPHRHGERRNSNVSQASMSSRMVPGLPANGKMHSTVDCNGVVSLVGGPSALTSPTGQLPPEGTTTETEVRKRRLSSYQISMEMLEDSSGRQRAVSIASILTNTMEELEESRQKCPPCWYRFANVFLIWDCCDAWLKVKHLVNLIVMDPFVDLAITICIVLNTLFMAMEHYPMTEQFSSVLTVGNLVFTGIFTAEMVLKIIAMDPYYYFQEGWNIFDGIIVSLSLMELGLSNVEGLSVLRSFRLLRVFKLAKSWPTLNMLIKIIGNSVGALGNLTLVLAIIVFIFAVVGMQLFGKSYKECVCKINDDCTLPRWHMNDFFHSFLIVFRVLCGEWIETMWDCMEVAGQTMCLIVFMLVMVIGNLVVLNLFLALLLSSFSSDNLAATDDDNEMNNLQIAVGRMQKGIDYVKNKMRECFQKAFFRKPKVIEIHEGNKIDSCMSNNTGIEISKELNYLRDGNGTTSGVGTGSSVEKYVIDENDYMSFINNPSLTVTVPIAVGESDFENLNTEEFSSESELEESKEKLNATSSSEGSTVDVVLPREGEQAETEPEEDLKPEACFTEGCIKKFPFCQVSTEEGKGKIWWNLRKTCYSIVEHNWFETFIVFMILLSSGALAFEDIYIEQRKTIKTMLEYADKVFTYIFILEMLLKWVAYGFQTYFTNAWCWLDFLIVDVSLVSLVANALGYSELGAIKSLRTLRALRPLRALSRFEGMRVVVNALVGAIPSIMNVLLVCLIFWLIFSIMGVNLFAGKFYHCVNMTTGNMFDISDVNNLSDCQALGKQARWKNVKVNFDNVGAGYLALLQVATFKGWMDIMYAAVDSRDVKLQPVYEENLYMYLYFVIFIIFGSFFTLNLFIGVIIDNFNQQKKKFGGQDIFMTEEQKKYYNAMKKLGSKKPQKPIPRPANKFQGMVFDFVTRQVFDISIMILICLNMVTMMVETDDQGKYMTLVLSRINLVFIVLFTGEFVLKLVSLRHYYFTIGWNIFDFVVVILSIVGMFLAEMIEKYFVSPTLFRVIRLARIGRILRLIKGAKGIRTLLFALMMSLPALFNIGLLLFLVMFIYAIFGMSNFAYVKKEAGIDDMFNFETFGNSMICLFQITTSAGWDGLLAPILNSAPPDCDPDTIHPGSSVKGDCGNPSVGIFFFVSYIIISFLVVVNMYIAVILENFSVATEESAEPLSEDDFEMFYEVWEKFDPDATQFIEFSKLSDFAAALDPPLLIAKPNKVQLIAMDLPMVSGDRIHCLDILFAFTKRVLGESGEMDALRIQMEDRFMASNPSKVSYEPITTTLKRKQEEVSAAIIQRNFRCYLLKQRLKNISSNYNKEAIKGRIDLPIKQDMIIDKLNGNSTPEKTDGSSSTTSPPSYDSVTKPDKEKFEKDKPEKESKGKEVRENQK

Take `CC[C@H](C)[C@@H]1NC(=O)[C@@H]2CSSC[C@@H]3NC(=O)[C@H](C(C)C)NC(=O)[C@H](CC(C)C)NC(=O)[C@H](CC(N)=O)NC(=O)[C@@H]4CCCN4C(=O)[C@H](CCCNC(=N)N)NC(=O)[C@H](CSSC[C@H](NC(=O)[C@@H](N)CCCCN)C(=O)N[C@@H](CC(C)C)C(=O)NCC(=O)N[C@@H](Cc4ccccc4)C(=O)N[C@@H](CCSC)C(=O)N[C@@H](CCCNC(=N)N)C(=O)N[C@@H](CCCCN)C(=O)N2)NC(=O)[C@H](CSSC[C@@H](C(=O)N[C@@H](CCCCN)C(=O)N[C@@H](Cc2ccc(O)cc2)C(=O)N[C@H](C(=O)N[C@@H](Cc2ccccc2)C(N)=O)C(C)C)NC(=O)[C@H](Cc2c[nH]c4ccccc24)NC(=O)[C@H](CCCCN)NC(=O)[C@H](Cc2cnc[nH]2)NC(=O)[C@H]([C@@H](C)O)NC(=O)[C@H](CCCNC(=N)N)NC(=O)[C@H](CO)NC3=O)NC(=O)[C@H](CCCCN)NC(=O)[C@H](CC(=O)O)NC(=O)[C@H](CC(N)=O)NC(=O)[C@H](CC(=O)O)NC(=O)[C@@H]2CCCN2C1=O` [SEQ ID NO: 37] (H-KCLGFMRKCIPDNDKCCRPNLVCSRTHKWCKYVF-NH2; disulfide 2-17, 9-23, 16-30): the IC50 turned out to be 0.07 µM at hNav1.3 (setting [1]) and 7.29 µM at hNav1.5 (IWQ Use Nav1.5).

With `CC[C@H](C)[C@@H]1NC(=O)[C@@H]2CSSC[C@@H]3NC(=O)[C@H](C(C)C)NC(=O)[C@H](CC(C)C)NC(=O)[C@H](CC(N)=O)NC(=O)[C@@H]4CCCN4C(=O)[C@H](CCCNC(=N)N)NC(=O)[C@H](CSSC[C@H](NC(=O)[C@@H](N)CC(=O)O)C(=O)N[C@@H](CC(C)C)C(=O)NCC(=O)N[C@@H](Cc4ccccc4)C(=O)N[C@@H](CCC(=O)O)C(=O)N[C@@H](CCCNC(=N)N)C(=O)N[C@@H](CCCCN)C(=O)N2)NC(=O)[C@H](CSSC[C@@H](C(=O)N[C@@H](CCCCN)C(=O)N[C@@H](Cc2ccc(O)cc2)C(=O)N[C@H](C(=O)N[C@@H](Cc2ccccc2)C(N)=O)C(C)C)NC(=O)[C@H](Cc2c[nH]c4ccccc24)NC(=O)[C@H](CCCCN)NC(=O)[C@H](Cc2cnc[nH]2)NC(=O)[C@H]([C@@H](C)O)NC(=O)[C@H](CCCNC(=N)N)NC(=O)[C@H](CO)NC3=O)NC(=O)[C@H](CCCCN)NC(=O)[C@H](CC(=O)O)NC(=O)[C@H](CC(N)=O)NC(=O)[C@H](CC(=O)O)NC(=O)[C@@H]2CCCN2C1=O` [SEQ ID NO: 144] (H-DCLGFERKCIPDNDKCCRPNLVCSRTHKWCKYVF-NH2; disulfide 2-17, 9-23, 16-30), the IC50 at hNav1.3 (setting [1]) is 20.4 µM; at hNav1.5 (setting [2]), 9.39 µM.

Turning to `CC[C@H](C)[C@@H]1NC(=O)[C@@H]2CSSC[C@@H]3NC(=O)[C@H](C(C)C)NC(=O)[C@H](CC(C)C)NC(=O)[C@H](CC(N)=O)NC(=O)[C@@H]4CCCN4C(=O)[C@H](CCCNC(=N)N)NC(=O)[C@H](CSSC[C@H](NC(=O)[C@@H](N)CC(=O)O)C(=O)N[C@@H](CC(C)C)C(=O)NCC(=O)N[C@@H](Cc4ccccc4)C(=O)N[C@@H](CCSC)C(=O)N[C@@H](CCCNC(=N)N)C(=O)N[C@@H](CCCCN)C(=O)N2)NC(=O)[C@H](CSSC[C@@H](C(=O)N[C@@H](CCCCN)C(=O)N[C@@H](Cc2ccc(O)cc2)C(=O)N[C@H](C(=O)N[C@@H](Cc2ccccc2)C(N)=O)C(C)C)NC(=O)[C@H](Cc2c[nH]c4ccccc24)NC(=O)[C@H](CCCCN)NC(=O)[C@H](Cc2cnc[nH]2)NC(=O)[C@H]([C@@H](C)O)NC(=O)[C@H](CCCNC(=N)N)NC(=O)[C@H](CO)NC3=O)NC(=O)[C@H](CCCCN)NC(=O)[C@H](CC(=O)O)NC(=O)[C@H](CC(N)=O)NC(=O)[C@H](CC(=O)O)NC(=O)[C@H](CCC(=O)O)NC1=O` [SEQ ID NO: 147, [Glu11]GpTx-1] (H-DCLGFMRKCIEDNDKCCRPNLVCSRTHKWCKYVF-NH2; disulfide 2-17, 9-23, 16-30), the IC50 worked out at 0.21 µM at hNav1.3 (Use) and 15.6 µM on hNav1.5 (IWQ Use Nav1.5 (μM)).

`CC[C@H](C)[C@@H]1NC(=O)[C@@H]2CSSC[C@@H]3NC(=O)[C@H](C(C)C)NC(=O)[C@H](CC(C)C)NC(=O)[C@H](CC(N)=O)NC(=O)[C@@H]4CCCN4C(=O)[C@H](CCCNC(=N)N)NC(=O)[C@H](CSSC[C@H](NC(=O)[C@@H](N)CCCNC(=N)N)C(=O)N[C@@H](CC(C)C)C(=O)NCC(=O)N[C@@H](Cc4ccccc4)C(=O)N[C@@H](CCSC)C(=O)N[C@@H](CCCNC(=N)N)C(=O)N[C@@H](CCCCN)C(=O)N2)NC(=O)[C@H](CSSC[C@@H](C(=O)N[C@@H](CCCCN)C(=O)N[C@@H](Cc2ccc(O)cc2)C(=O)N[C@H](C(=O)N[C@@H](Cc2ccccc2)C(N)=O)C(C)C)NC(=O)[C@H](Cc2c[nH]c4ccccc24)NC(=O)[C@H](CCCCN)NC(=O)[C@H](Cc2cnc[nH]2)NC(=O)[C@H]([C@@H](C)O)NC(=O)[C@H](CCCNC(=N)N)NC(=O)[C@H](CO)NC3=O)NC(=O)[C@H](CCCCN)NC(=O)[C@H](CC(=O)O)NC(=O)[C@H](CC(N)=O)NC(=O)[C@H](CC(=O)O)NC(=O)[C@@H]2CCCN2C1=O` [SEQ ID NO: 62] (H-RCLGFMRKCIPDNDKCCRPNLVCSRTHKWCKYVF-NH2; disulfide 2-17, 9-23, 16-30): the IC50 on hNav1.3 (setting [1]) was 0.1 µM; on hNav1.5 (setting [2]), 8.78 µM. In the case of `CC[C@H](C)[C@@H]1NC(=O)[C@@H]2CSSC[C@@H]3NC(=O)[C@H](C(C)C)NC(=O)[C@H](CC(C)C)NC(=O)[C@H](CC(N)=O)NC(=O)[C@H](CCCNC(=N)N)NC(=O)[C@H](CCCNC(=N)N)NC(=O)[C@H](CSSC[C@H](NC(=O)[C@@H](N)CC(=O)O)C(=O)N[C@@H](CC(C)C)C(=O)NCC(=O)N[C@@H](Cc4ccccc4)C(=O)N[C@@H](CCSC)C(=O)N[C@@H](CCCNC(=N)N)C(=O)N[C@@H](CCCCN)C(=O)N2)NC(=O)[C@H](CSSC[C@@H](C(=O)N[C@@H](CCCCN)C(=O)N[C@@H](Cc2ccc(O)cc2)C(=O)N[C@H](C(=O)N[C@@H](Cc2ccccc2)C(N)=O)C(C)C)NC(=O)[C@H](Cc2c[nH]c4ccccc24)NC(=O)[C@H](CCCCN)NC(=O)[C@H](Cc2cnc[nH]2)NC(=O)[C@H]([C@@H](C)O)NC(=O)[C@H](CCCNC(=N)N)NC(=O)[C@H](CO)NC3=O)NC(=O)[C@H](CCCCN)NC(=O)[C@H](CC(=O)O)NC(=O)[C@H](CC(N)=O)NC(=O)[C@H](CC(=O)O)NC(=O)[C@@H]2CCCN2C1=O` [compound 157] (H-DCLGFMRKCIPDNDKCCRRNLVCSRTHKWCKYVF-NH2; disulfide 2-17, 9-23, 16-30), the IC50 on hNav1.3 (Use) was found to be 0.06 µM; on hNav1.5 (IonWorks Quattro, Use, read-out: IWQ Use Nav1.5) it was 6.16 µM.

With `CC[C@H](C)[C@@H]1NC(=O)[C@@H]2CSSC[C@@H]3NC(=O)[C@H](C(C)C)NC(=O)[C@H](CC(C)C)NC(=O)[C@H](CC(N)=O)NC(=O)[C@@H]4CCCN4C(=O)[C@H](CCCNC(=N)N)NC(=O)[C@H](CSSC[C@H](NC(=O)[C@@H](N)CC(=O)O)C(=O)N[C@@H](CC(C)C)C(=O)NCC(=O)N[C@@H](Cc4ccccc4)C(=O)N[C@@H](CCSC)C(=O)N[C@@H](CCCNC(=N)N)C(=O)N[C@@H](CCCCN)C(=O)N2)NC(=O)[C@H](CSSC[C@@H](C(=O)N[C@@H](CCCCN)C(=O)N[C@@H](Cc2ccc(O)cc2)C(=O)N[C@H](C(=O)N[C@@H](Cc2ccccc2)C(N)=O)C(C)C)NC(=O)[C@H](Cc2c[nH]c4ccccc24)NC(=O)[C@H](CCC(N)=O)NC(=O)[C@H](Cc2c[nH]cn2)NC(=O)[C@H]([C@@H](C)O)NC(=O)[C@H](CCCNC(=N)N)NC(=O)[C@H](CO)NC3=O)NC(=O)[C@H](CCCCN)NC(=O)[C@H](CC(=O)O)NC(=O)[C@H](CC(N)=O)NC(=O)[C@H](CC(=O)O)NC(=O)[C@@H]2CCCN2C1=O` [SEQ ID NO: 763, [Gln28]GpTx-1] (H-DCLGFMRKCIPDNDKCCRPNLVCSRTHQWCKYVF-NH2; disulfide 2-17, 9-23, 16-30), the IC50 at hNav1.5 (read-out: IWQ Use Nav1.5) worked out at 22.7 µM. As for `CC[C@H](C)[C@@H]1NC(=O)[C@@H]2CSSC[C@@H]3NC(=O)[C@H](C(C)C)NC(=O)[C@H](CC(C)C)NC(=O)[C@H](CC(N)=O)NC(=O)[C@@H]4CCCN4C(=O)[C@H](CCCNC(=N)N)NC(=O)[C@H](CSSC[C@H](NC(=O)[C@@H](N)CC(=O)O)C(=O)N[C@@H](CC(C)C)C(=O)NCC(=O)N[C@@H](C)C(=O)N[C@@H](CCSC)C(=O)N[C@@H](CCCNC(=N)N)C(=O)N[C@@H](CCCCN)C(=O)N2)NC(=O)[C@H](CSSC[C@@H](C(=O)N[C@@H](CCCCN)C(=O)N[C@@H](Cc2ccc(O)cc2)C(=O)N[C@H](C(=O)N[C@@H](Cc2ccccc2)C(N)=O)C(C)C)NC(=O)[C@H](Cc2c[nH]c4ccccc24)NC(=O)[C@H](CCC(=O)O)NC(=O)[C@H](Cc2c[nH]cn2)NC(=O)[C@H]([C@@H](C)O)NC(=O)[C@H](CCCNC(=N)N)NC(=O)[C@H](CO)NC3=O)NC(=O)[C@H](CCCCN)NC(=O)[C@H](CC(=O)O)NC(=O)[C@H](CC(N)=O)NC(=O)[C@H](CC(=O)O)NC(=O)[C@@H]2CCCN2C1=O` [compound 691], the IC50 at hNav1.5 (IonWorks Quattro, use-dependent protocol, hNav1.5, read-out: IWQ Use Nav1.5) is more than 5 µM.
